# Data: patent publication US20010036626A1, “Screening assay methods and systems using target pooling” (priority 2000, published 2001)
# Assays:
# THP-1 cell line = assay: Pooled two-target microfluidic screen: Fura red fluorescence response of THP-1 cells; format: cell-based; conditions: pooled with CHO-M1 cells, microfluidic channel, blue excitation light, FIG. 6C-6D
# Protocol: (§1) A THP-1 cell line was labeled with Fura red. Both cell lines were pooled and introduced into microfluidic device having the channel structure illustrated in FIG. 5. The cells were flowed through the main channel of the device past a detector that excited the cells with blue excitation light. Green fluorescence was analyzed from the Fluo-4 labeled CHO cells to measure their response to the test compounds. The measurement of the different fluorescence was accomplished simultaneously through the use of appropriate beam splitters and filters in the optical train of the detector. Similarly, red fluorescence was measured from the Fura-red labeled THP-1 cells to measure their response. […] Similarly, different concentrations of UTP were also contacted with the cells flowing through the channel and the results for each system were plotted (FIG. 6C-D).
# [1] = test system: CHO cell line expressing the M1 muscarinic receptor; assay: Pooled two-target microfluidic screen: Fluo-4 green fluorescence response of CHO-M1 cells; format: cell-based; conditions: pooled with THP-1 cells, microfluidic channel, blue excitation light, FIG. 6
# Protocol: as §1
smiles,measurement,setting,value
O=c1ccn([C@@H]2O[C@H](COP(=O)(O)OP(=O)(O)OP(=O)(O)O)[C@@H](O)[C@H]2O)c(=O)[nH]1 [UTP],red fluorescence response of Fura-red labeled THP-1 cells to different concentrations of test compound,THP-1 cell line,dose dependent response
same,green fluorescence response of Fluo-4 labeled CHO-M1 cells to different concentrations of test compound,[1],dose dependent response
